{
  "source": "patent US7109174B2",
  "about": "“Anticonvulsant derivatives useful for preventing the development of type II diabetes mellitus and syndrome X” (Ortho-McNeil Pharmaceutical, Inc., priority 2000, dated 2006)",
  "key": {"Female ZDF rats": {"tested_on": "Female ZDF rats", "experiment": "Blood glucose and oral glucose tolerance in female ZDF rats dosed orally for 16 days", "type": "in vivo", "settings": "for Plasma Glucose Levels: 16 days, ± SEM", "procedure": "Female ZDF rats were also randomly divided into control and topiramate (30 or 100 mg/kg/day) treated groups, dosed orally for 16 days, and tested for blood glucose levels and oral glucose tolerance following glucose challenge of 2 g/kg. The effect of topiramate was as listed in Table 10 (N=8 rats per treatment group)."}, "human epilepsy": {"tested_on": "human epilepsy", "settings": "clinical trials; cited from earlier work"}, "ob/ob mice": {"tested_on": "ob/ob mice", "experiment": "ob/ob mice second study: topiramate in food for 118 days; skin lesions, glucose, insulin, glycosylated hemoglobin, body weight", "type": "in vivo", "parameters": "Glycosylated hemoglobin: unit not given here", "settings": "for Skin lesions Mild (mice) / Skin lesions Moderate (mice) / Skin lesions Severe (mice) / Skin lesions Total (mice): 180 mg/kg/day, N = 9", "text": "It is known that ob/ob mice when allowed to eat ad libitum, develop abnormally high blood levels of insulin (hyperinsulinemia), glucose (hyperglycemia), lesions of the skin, and a high level of glycosylated hemoglobin, all of which are hallmark signs of Type II diabetes mellitus (R. R. HENRY, Ann. Intern. Med. 1996, 124, 97–103; G. W. EDELSON, Clin. Podiatr. Med. Surg. 1998, 15, 41–48; P. R. JOHNSON, M. R. GREENWOOD, B. A. HORWITZ and J. S. STERN, Annu. Rev. Nutr. 1991, 11, 325–353). Based on this knowledge of the ob/ob mouse model, two studies were designed to determine the effect of compounds of formula (I) in these mice models.\nIn the second study, a uniform population of mice was divided into two groups. In one group of control mice, no topiramate was added to the food for the entire 118-day period. In a second group, topiramate was added to the food in amounts sufficient to give a daily dose of 60 mg/kg for 6 days, then a daily dose of 180 mg/kg for 112 days. During the course of the dosing period the mice were examined two-times a week for skin lesions. When skin lesions were evident, the severity was estimated based on the number and size of the lesions, and given a score ranging from mild to severe (Table 2). For four of the control mice their health deteriorated to the point that they either died or had to be euthanized. Three of these four control mice had lesions (two mice were classified as severe and one mice as mild). […] By comparison none of the nine mice treated with topiramate ever developed skin lesions (Table 2). After the 118-day period was completed, all surviving mice were sacrificed and blood was obtained and prepared for subsequent analysis of plasma glucose and insulin, and glycosylated hemoglobin. […] The body weight gain was similar in both groups throughout the study. Therfore, the beneficial effects of topiramate on the biological markers of the disease cannot be secondary to the potential beneficial effect that might arise from a loss of body eight."}},
  "data": [
    {"smiles": "CC1(C)O[C@@H]2[C@@H](CO[C@@]3(COS(N)(=O)=O)OC(C)(C)O[C@@H]23)O1", "note": "[Topiramate, 2,3:4,5-bis-O-(1-methylethylidene)-β-D-fructopyranose sulfamate]", "values": [
      {"measurement": "Plasma Glucose Levels", "setting": "Female ZDF rats; 30 mg/kg/day oral, 60 Min after Challenge (glucose 2 g/kg), P < 0.05", "result": "342 ± 32", "unit": "md/dL"},
      {"measurement": "Plasma Glucose Levels", "setting": "Female ZDF rats; 30 mg/kg/day oral, 90 Min after Challenge, P < 0.01", "result": "269 ± 32", "unit": "md/dL"},
      {"measurement": "Plasma Glucose Levels", "setting": "Female ZDF rats; 30 mg/kg/day oral, 120 Min after Challenge, P < 0.01", "result": "206 ± 26", "unit": "md/dL"},
      {"measurement": "Plasma Glucose Levels", "setting": "Female ZDF rats; 30 mg/kg/day oral, Time = 0", "result": "121 ± 13", "unit": "md/dL"},
      {"measurement": "Plasma Glucose Levels", "setting": "Female ZDF rats; 100 mg/kg/day oral, 60 Min after Challenge (glucose 2 g/kg), P < 0.01", "result": "333 ± 32", "unit": "md/dL"},
      {"measurement": "Plasma Glucose Levels", "setting": "Female ZDF rats; 100 mg/kg/day oral, 90 Min after Challenge, P < 0.01", "result": "242 ± 28", "unit": "md/dL"},
      {"measurement": "Plasma Glucose Levels", "setting": "Female ZDF rats; 100 mg/kg/day oral, 120 Min after Challenge, P < 0.01", "result": "173 ± 23", "unit": "md/dL"},
      {"measurement": "Plasma Glucose Levels", "setting": "Female ZDF rats; 100 mg/kg/day oral, Time = 0", "result": "129 ± 15", "unit": "md/dL"},
      {"measurement": "oral glucose tolerance", "setting": "Female ZDF rats; at 60, 90 and 120 minutes after glucose challenge", "result": "improves"},
      {"measurement": "efficacy as adjunctive therapy or monotherapy in simple and complex partial seizures and secondarily generalized seizures", "setting": "human epilepsy", "result": "effective"},
      {"measurement": "level of blood glucose", "setting": "ob/ob mice; 60 mg/kg/day 6 days then 180 mg/kg/day 112 days in food, end of study, mean±SEM, n=9, P<0.05", "result": "131 ± 13", "unit": "mg/dL"},
      {"measurement": "Skin lesions Mild (mice)", "setting": "ob/ob mice; Day 41", "result": 0},
      {"measurement": "Skin lesions Moderate (mice)", "setting": "ob/ob mice; Day 41", "result": 0},
      {"measurement": "Skin lesions Severe (mice)", "setting": "ob/ob mice; Day 41", "result": 0},
      {"measurement": "Skin lesions Total (mice)", "setting": "ob/ob mice; Day 41", "result": 0},
      {"measurement": "Skin lesions Mild (mice)", "setting": "ob/ob mice; Day 53", "result": 0},
      {"measurement": "Skin lesions Moderate (mice)", "setting": "ob/ob mice; Day 53", "result": 0},
      {"measurement": "Skin lesions Severe (mice)", "setting": "ob/ob mice; Day 53", "result": 0},
      {"measurement": "Skin lesions Total (mice)", "setting": "ob/ob mice; Day 53", "result": 0},
      {"measurement": "Skin lesions Mild (mice)", "setting": "ob/ob mice; Day 61", "result": 0},
      {"measurement": "Skin lesions Moderate (mice)", "setting": "ob/ob mice; Day 61", "result": 0},
      {"measurement": "Skin lesions Severe (mice)", "setting": "ob/ob mice; Day 61", "result": 0},
      {"measurement": "Skin lesions Total (mice)", "setting": "ob/ob mice; Day 61", "result": 0},
      {"measurement": "Skin lesions Mild (mice)", "setting": "ob/ob mice; Day 70", "result": 0},
      {"measurement": "Skin lesions Moderate (mice)", "setting": "ob/ob mice; Day 70", "result": 0},
      {"measurement": "Skin lesions Severe (mice)", "setting": "ob/ob mice; Day 70", "result": 0},
      {"measurement": "Skin lesions Total (mice)", "setting": "ob/ob mice; Day 70", "result": 0},
      {"measurement": "Skin lesions Mild (mice)", "setting": "ob/ob mice; Day 83", "result": 0},
      {"measurement": "Skin lesions Moderate (mice)", "setting": "ob/ob mice; Day 83", "result": 0},
      {"measurement": "Skin lesions Severe (mice)", "setting": "ob/ob mice; Day 83", "result": 0},
      {"measurement": "Skin lesions Total (mice)", "setting": "ob/ob mice; Day 83", "result": 0},
      {"measurement": "Skin lesions Mild (mice)", "setting": "ob/ob mice; Day 96", "result": 0},
      {"measurement": "Skin lesions Moderate (mice)", "setting": "ob/ob mice; Day 96", "result": 0},
      {"measurement": "Skin lesions Severe (mice)", "setting": "ob/ob mice; Day 96", "result": 0},
      {"measurement": "Skin lesions Total (mice)", "setting": "ob/ob mice; Day 96", "result": 0},
      {"measurement": "Skin lesions Mild (mice)", "setting": "ob/ob mice; Day 97", "result": 0},
      {"measurement": "Skin lesions Moderate (mice)", "setting": "ob/ob mice; Day 97", "result": 0},
      {"measurement": "Skin lesions Severe (mice)", "setting": "ob/ob mice; Day 97", "result": 0},
      {"measurement": "Skin lesions Total (mice)", "setting": "ob/ob mice; Day 97", "result": 0},
      {"measurement": "Skin lesions Mild (mice)", "setting": "ob/ob mice; Day 105", "result": 0},
      {"measurement": "Skin lesions Moderate (mice)", "setting": "ob/ob mice; Day 105", "result": 0},
      {"measurement": "Skin lesions Severe (mice)", "setting": "ob/ob mice; Day 105", "result": 0},
      {"measurement": "Skin lesions Total (mice)", "setting": "ob/ob mice; Day 105", "result": 0},
      {"measurement": "Skin lesions Mild (mice)", "setting": "ob/ob mice; Day 118", "result": 0},
      {"measurement": "Skin lesions Moderate (mice)", "setting": "ob/ob mice; Day 118", "result": 0},
      {"measurement": "Skin lesions Severe (mice)", "setting": "ob/ob mice; Day 118", "result": 0},
      {"measurement": "Skin lesions Total (mice)", "setting": "ob/ob mice; Day 118", "result": 0},
      {"measurement": "body weight", "setting": "ob/ob mice; day 118", "result": "55.1 ± 1.3", "unit": "g"},
      {"measurement": "body weight", "setting": "ob/ob mice; day −1, n=9", "result": "42.8 ± 1.1", "unit": "g"},
      {"measurement": "insulin levels versus control", "setting": "ob/ob mice; end of 118-day study", "result": "did not differ"},
      {"measurement": "Glycosylated hemoglobin", "setting": "ob/ob mice; end of 118-day study, mean±SEM, n=9, P<0.01", "result": "3.16±0.1"},
      {"measurement": "mice that ever developed skin lesions", "setting": "ob/ob mice; nine topiramate-treated mice, 118-day period", "result": "none"},
      {"measurement": "body weight gain versus control", "setting": "ob/ob mice; throughout the 118-day study", "result": "similar"},
      {"measurement": "blood glucose difference between groups", "setting": "ob/ob mice; topiramate-treated versus control at end of 118-day study", "result": 52, "unit": "%"},
      {"measurement": "Glycosylated hemoglobin reduction with topiramate treatment", "setting": "ob/ob mice; versus surviving control mice, end of 118-day study", "result": 48, "unit": "%"}
    ]}
  ]
}
